# Laboratory results from patent US20060204980A1, “Colorectal cancer therapies” (priority 2004, published 2006).
# Entries after “also recorded” stand apart in the source; their conditions may differ.
# How the values were obtained:
# GSK3β = GSK3β (Homo sapiens, UniProt P49841); settings: battery of kinase substrates, Bain et al.; cited from earlier work
# [1] = system: p53^+/+ HCT116 colorectal carcinoma cells; test: Western blotting of p53 pathway proteins in treated p53+/+ HCT116 cells; assay type: cell-based
# Experimental: (§1) Cells were collected and centrifuged at 3,000 rpm for 5 minutes at 4° C., and washed in PBS (pH 7.2). The cell pellet was solubilized in lysis buffer (20 mM Tris, pH 7.2, 0.5% deoxycholate, 1% Triton X-100, 0.1% SDS, 150 mM NaCl, 1 mM EDTA) containing proteases inhibitors (Complete, Roche Applied Science) for 30 min at 4° C. The lysate was cleared by centrifugation for 15 minutes, and protein concentration was evaluated using a Bio-Rad protein assay system (Bio-Rad Laboratories, Hercules, Calif.). Samples (30 μg) were separated by SDS-polyacrylamide gel, transferred to nylon membranes (Millipore), and incubated with primary antibodies to p53 (Oncogene Research Products, FL-393, Santa Cruz Biotechnology, Inc., Santa Cruz, Calif.), p21^Waf1/Cip1 (Oncogene Research Products), XIAP (BD Transduction Laboratories), survivin (NOVUS Biologicals, Littleton, Colo.), MDM2 (Santa Cruz Biotechnology, Inc.), p14^ARF (NOVUS Biologicals), caspase-3 (Cell Signaling Technology), cleaved caspase-3 (Cell Signaling Technology), β-catenin (BD Transduction Laboratories), cyclin B1 (GNS1, Santa Cruz Biotechnology, Inc.), GSK3β (Santa Cruz Biotechnology, Inc.), or β-sactin (Sigma) with detection of reactive bands by chemiluminescence (Amersham). Cells were analyzed for hypodiploid DNA content by propidium iodide staining and flow cytometry as described in O'Connor et al., Cancer Cell, 2:43-54 (2002). Chemicals whose source is not explicitly listed were or can be obtained from Sigma.
# To explore the link between GSK3β inhibition and p53 modulation, in vivo, HCT116 cells were treated with Li, TDZD or SB216763, and analyzed cells by Western blotting. p53^+/+ or p53^−/− HCT116 cells were incubated with the following GSK3β inhibitors, LiCl (Sigma, 30 mM), thiadiazolidinone-8 (TDZD) (Calbiochem, 0-20 μM), or SB216763 (Sigma, 20 μM), cells were harvested after 6-24 hours, and samples were analyzed by Western blotting as described in Example 2. […]
# [2] = system: p53^−/− HCT116 colorectal carcinoma cells; test: Western blotting of p53 pathway proteins in treated p53-/- HCT116 cells; assay type: cell-based
# Experimental: as §1
# To explore the link between GSK3β inhibition and p53 modulation, in vivo, HCT116 cells were treated with Li, TDZD or SB216763, and analyzed cells by Western blotting. p53^+/+ or p53^−/− HCT116 cells were incubated with the following GSK3β inhibitors, LiCl (Sigma, 30 mM), thiadiazolidinone-8 (TDZD) (Calbiochem, 0-20 μM), or SB216763 (Sigma, 20 μM), cells were harvested after 6-24 hours, and samples were analyzed by Western blotting as described in Example 2.
# p53^+/+ HCT116 cells = test: Hypodiploid DNA content by propidium iodide staining and flow cytometry, p53+/+ HCT116; assay type: cell-based; settings: 0-20 μM, 48 hours
# Experimental: Cells were collected and centrifuged at 3,000 rpm for 5 minutes at 4° C., and washed in PBS (pH 7.2). The cell pellet was solubilized in lysis buffer (20 mM Tris, pH 7.2, 0.5% deoxycholate, 1% Triton X-100, 0.1% SDS, 150 mM NaCl, 1 mM EDTA) containing proteases inhibitors (Complete, Roche Applied Science) for 30 min at 4° C. The lysate was cleared by centrifugation for 15 minutes, and protein concentration was evaluated using a Bio-Rad protein assay system (Bio-Rad Laboratories, Hercules, Calif.). […] Cells were analyzed for hypodiploid DNA content by propidium iodide staining and flow cytometry as described in O'Connor et al., Cancer Cell, 2:43-54 (2002). […]
# (§2) The functional consequences of GSK3β inhibition were explored. […] Alternatively, cells were incubated with GSK3β inhibitors LiCl (30 mM) or TDZD (20 μM), harvested after 48 hours and analyzed for cell viability (propidium iodide, red channel) and active caspase-3/7 activity (green channel, […]®, from Chemicon International Inc., Temecula, Calif.), by multiparametric flow cytometry as reported previously in Kim et al., Lancet, 362:205-209 (2003).
# p34^cdc2 = target: T1, p34^cdc2 (Homo sapiens, UniProt P06493); test: H1 histone kinase assay of p34cdc2 immunoprecipitated from treated HCT116 cells; assay type: cell-based
# T1 construct: p34^cdc2 that was immunoprecipitated from HCT116 cells treated with vehicle for 6 to 48 hours consistently phosphorylated histone H1; endogenous in cells; host or cells: HCT116 colorectal carcinoma cells
# Experimental: As shown in FIG. 2C (lanes labeled None), p34^cdc2 that was immunoprecipitated from HCT116 cells treated with vehicle for 6 to 48 hours consistently phosphorylated histone H1.
# Cdk2 = Cdk2 (Homo sapiens, UniProt P24941); settings: in vivo, Knockaert et al.; cited from earlier work
# p53^−/− HCT116 cells = test: Hypodiploid DNA content by propidium iodide staining and flow cytometry, p53-/- HCT116; assay type: cell-based
# Experimental: as §1
# as §2, with “explored. Source and maintenance of p53^+/+ and p53^−/− HCT116 colorectal carcinoma cells were as described in Example 2.” for “explored.”, “(2003). […]” for “(2003).”
# p42/p44 MAP kinase = settings: in vivo, Knockaert et al.; cited from earlier work
# T1 sequence (P06493 whole entry): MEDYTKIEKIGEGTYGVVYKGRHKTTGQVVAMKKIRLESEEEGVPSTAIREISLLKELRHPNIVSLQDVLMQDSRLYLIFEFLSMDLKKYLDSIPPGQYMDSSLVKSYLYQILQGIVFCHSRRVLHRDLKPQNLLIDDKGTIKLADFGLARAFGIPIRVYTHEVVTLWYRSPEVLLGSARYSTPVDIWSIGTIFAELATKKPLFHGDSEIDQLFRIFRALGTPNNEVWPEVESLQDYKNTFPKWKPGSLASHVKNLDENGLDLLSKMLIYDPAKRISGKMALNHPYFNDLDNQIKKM
# T1 sequence (P14635 whole entry partner): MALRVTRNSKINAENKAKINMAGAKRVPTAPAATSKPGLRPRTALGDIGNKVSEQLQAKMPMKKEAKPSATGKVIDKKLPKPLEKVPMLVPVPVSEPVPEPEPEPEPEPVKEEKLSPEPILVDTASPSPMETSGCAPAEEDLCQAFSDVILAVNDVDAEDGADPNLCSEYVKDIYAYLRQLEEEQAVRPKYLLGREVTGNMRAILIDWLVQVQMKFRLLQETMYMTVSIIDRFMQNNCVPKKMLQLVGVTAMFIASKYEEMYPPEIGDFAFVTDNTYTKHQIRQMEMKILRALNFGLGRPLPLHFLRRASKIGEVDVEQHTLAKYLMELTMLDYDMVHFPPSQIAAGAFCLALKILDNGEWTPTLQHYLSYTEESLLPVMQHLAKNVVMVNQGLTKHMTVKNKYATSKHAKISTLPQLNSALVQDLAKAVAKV
# GSK3β, sequence (P49841 whole entry): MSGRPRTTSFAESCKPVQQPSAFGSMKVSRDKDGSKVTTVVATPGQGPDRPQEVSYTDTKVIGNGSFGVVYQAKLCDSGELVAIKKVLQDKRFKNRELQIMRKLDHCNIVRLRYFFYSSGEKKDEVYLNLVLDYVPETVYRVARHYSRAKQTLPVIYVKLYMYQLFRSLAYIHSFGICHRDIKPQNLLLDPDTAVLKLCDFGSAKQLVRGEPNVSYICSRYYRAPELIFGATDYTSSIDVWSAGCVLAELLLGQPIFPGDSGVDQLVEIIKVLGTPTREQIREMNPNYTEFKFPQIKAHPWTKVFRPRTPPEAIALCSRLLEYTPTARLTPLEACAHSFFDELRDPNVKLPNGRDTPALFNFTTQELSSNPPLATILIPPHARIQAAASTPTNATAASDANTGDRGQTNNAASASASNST
compound,measurement,setting,value
CC(C)[C@H](CO)Nc1nc(Nc2cccc(Cl)c2)c2ncn(C(C)C)c2n1 [Purvalanol A],activity against GSK3β in vitro,GSK3β,not active against GSK3β
same,MDM2 expression (Western blot),[1]; HCT116 cells,reduced expression
same,p14^ARF expression (Western blot),"[1]; HCT116 cells, relative to vehicle",upregulation of p14^ARF
same,XIAP expression (Western blot),[1]; p53+/+ HCT116,no changes in the expression
same,survivin expression (Western blot),[1]; p53+/+ HCT116,loss of survivin expression; also recorded: time-dependent downregulation of survivin
same,caspase-3 cleavage (Western blot),"[1]; p53+/+ HCT116, 10 μM, 6-48 hour",time-dependent cleavage of 32 kD proform caspase-3 to active caspase-3 fragments
same,p21^Waf1/Cip1 expression (Western blot),"[1]; p53+/+ HCT116, 6-24 hours",upregulation of p21^Waf1/Cip1
same,p53 expression (Western blot),"[1]; p53+/+ HCT116, 6-24 hours",time-dependent accumulation of p53
same,p53-reactive material (Western blot),[2],did not modulate the expression of p53-reactive material
same,survivin expression (Western blot),[2],no significant changes in survivin levels
same,apoptosis (hypodiploid DNA content),p53^+/+ HCT116 cells,concentration-dependent induction of apoptosis
same,p34^cdc2 kinase activity (histone H1 phosphorylation),p34^cdc2; 6 and 12 hours of treatment,no apparent inhibition of p34^cdc2 kinase activity
same,p34^cdc2 kinase activity (histone H1 phosphorylation),p34^cdc2; 24 and 48 hours of treatment,did appear to suppress histone H1 phosphorylation
same,suppression of Cdk2,Cdk2,equally effective
same,apoptosis / cell death (hypodiploid DNA content),"p53^−/− HCT116 cells; 0-20 μM, 48 hours",largely resistant to Purvalanol A-induced cell death
same,cell cycle effect (DNA content),"p53^−/− HCT116 cells; 0-20 μM, 48 hours",sustained G2/M arrest
same,enhancement of cell death in survivin-ablated (S4) vs VIII transfectants treated with Purvalanol A,"p53^−/− HCT116 cells; survivin RNAi (S4), Purvalanol A 5 μM, 24 hour",2.5 fold
same,suppression of p42/p44 MAP kinase,p42/p44 MAP kinase,equally effective
